Values joined by “and” are separate entries in the source; they are usually repeats but may differ in a detail not shown here. Identical values can stand only once. Like-named read-outs stand apart in the source and are kept apart here.
Assays:
Rat pharmacokinetics = assay type: in vivo, Sprague-Dawley rats; conditions: for Vd / clearance / half-life / AUCN, i.v. dosing @ 1 mpk: iv, 1 mg/kg; for AUCN, p.o. dosing @ 2 mpk: po, 2 mg/kg
Experimental: As exemplified in Table 7, the in vivo pharmacokinetic profiles for Examples 1 and 3 and the comparator Compound #290 were determined in the rat at the standard screening doses of 1 mpk i.v. and 2 mpk p.o. (Note 10).
Compounds were formulated as their mono-L-malic acid salts at 1 mg/mL in PEG-200:water 70:30 (v:v) and administered to Sprague-Dawley rats (n=2 for i.v. and n=3 for p.o. arms) at a dose of 1 mg/kg i.v. or 2 mgk p.o. (free base equivalent). Blood samples were taken at 0.03, 0.08, 0.25, 0.50, 1, 2, 4, 6, 8 and 24 hours for the i.v. arm and at 0.25, 0.50, 1, 2, 4, 6, 8 and 24 hours for the p.o. arm. The plasma concentrations of test compound at each time point were determined by protein precipitation with acetonitrile followed by liquid chromatography—tandem mass spectrometry versus a standard curve. The PK parameters were calculated using validated techniques known in the literature (see Stedman's Medical Dictionary, 23rd ed.).

CYP-P450 2C9 = target: T1, CYP-P450 2C9 (Homo sapiens, UniProt P11712); assay: CYP-P450 reversible inhibition, 2C9; assay type: in vitro ADME; conditions: human liver microsomes or recombinant P450 microsomes; fluorescent probe
T1 construct: host or cells: human liver microsomes or recombinant P450 microsomes
T1 sequence (P11712 whole entry): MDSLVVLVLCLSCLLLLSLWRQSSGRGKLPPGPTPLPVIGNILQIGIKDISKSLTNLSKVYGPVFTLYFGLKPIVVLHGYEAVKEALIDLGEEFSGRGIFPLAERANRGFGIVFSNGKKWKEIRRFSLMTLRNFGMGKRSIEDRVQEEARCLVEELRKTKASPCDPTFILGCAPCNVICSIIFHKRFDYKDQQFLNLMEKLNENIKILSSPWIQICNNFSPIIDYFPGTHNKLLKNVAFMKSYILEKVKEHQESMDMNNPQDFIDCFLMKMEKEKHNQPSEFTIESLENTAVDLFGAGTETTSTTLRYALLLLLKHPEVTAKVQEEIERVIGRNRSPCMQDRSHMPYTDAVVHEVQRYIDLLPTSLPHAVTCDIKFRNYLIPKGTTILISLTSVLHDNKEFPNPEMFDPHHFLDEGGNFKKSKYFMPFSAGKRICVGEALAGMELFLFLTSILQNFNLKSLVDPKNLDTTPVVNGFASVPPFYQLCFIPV
Experimental: (§1) This assay measured the reversible inhibition of the test compounds against three cytochrome P450 isozymes (CYP-P450 3A4, 2C9 and 2D6) in an automated screening formate. […] Cumene hydroperoxide, NADPH or NADPH regenerating systems can be used as electron donors for the P450 catalytic cycle. Control incubations containing no inhibitor or no fluorescent probe were performed to evaluate the 100% and 0% activities, respectively. The activity of P450 enzyme was evaluated in the presence of 0.137, 0.273, 0.547, 1.094, 2.188, 4.375, 8.750, 17.5, 35.0 and 70.0 μM concentrations of the test compounds. Inhibition curves were generated and IC50 values were calculated for each tested compound using standard techniques.

CYP-P450 3A4 = target: T2, CYP-P450 3A4 (Homo sapiens, UniProt P08684); assay: CYP-P450 reversible inhibition, 3A4; assay type: in vitro ADME; conditions: human liver microsomes or recombinant P450 microsomes; fluorescent probe
T2 construct: host or cells: human liver microsomes or recombinant P450 microsomes
T2 sequence (P08684 whole entry): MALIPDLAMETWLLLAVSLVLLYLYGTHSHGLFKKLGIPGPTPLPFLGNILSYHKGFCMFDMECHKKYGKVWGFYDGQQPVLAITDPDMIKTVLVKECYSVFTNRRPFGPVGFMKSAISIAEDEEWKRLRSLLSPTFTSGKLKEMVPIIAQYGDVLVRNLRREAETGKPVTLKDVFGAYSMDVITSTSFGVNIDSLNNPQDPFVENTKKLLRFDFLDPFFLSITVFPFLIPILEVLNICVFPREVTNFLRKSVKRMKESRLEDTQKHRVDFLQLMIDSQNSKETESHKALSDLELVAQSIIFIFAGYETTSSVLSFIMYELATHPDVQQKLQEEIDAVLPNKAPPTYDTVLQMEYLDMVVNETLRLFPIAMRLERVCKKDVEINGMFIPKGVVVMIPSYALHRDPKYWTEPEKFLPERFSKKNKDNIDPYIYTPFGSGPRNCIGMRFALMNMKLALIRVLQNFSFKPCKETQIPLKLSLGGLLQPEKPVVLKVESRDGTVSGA
Experimental: as §1

[1] = Human liver microsome stability (Assays #1-#4); assay type: in vitro ADME; conditions: substrate 1 μM, 37° C.; for % Left Assay 3 @ 0 min / % Left Assay 3 @ 5 min / % Left Assay 3 @ 10 min / % Left Assay 3 @ 15 min / % Left Assay 3 @ 30 min / % Left Assay 3 @ 60 min / % Left @ 30 min / half-life at 1 μM: protein 0.1 mg/mL; for % Left (+NADPH) @ 0 min / % Left (+NADPH) @ 5 min / % Left (+NADPH) @ 10 min / % Left (+NADPH) @ 15 min / % Left (+NADPH) @ 30 min / % Left (+NADPH) @ 60 min / % Left (−NADPH) @ 0 min / % Left (−NADPH) @ 60 min: Assay #4, protein 1.0 mg/mL; for % Left (−NADPH) @ 0 min / % Left (−NADPH) @ 60 min: −NADPH control; for % Left @ 30 min / half-life at 1 μM: Assay #1; for half-life at 1 μM: human, liver microsomes
Experimental: The results for Examples 1 and 3 were t112=87 and 32 minutes with 78% and 60% remaining after 30 minutes, respectively, compared to shorter half-lives and lesser amounts left for Examples 2 and 4-6 (see Note 6 for conditions).
Under similar in vitro human liver microsome preparation stability assay conditions at 37° C. for 30 or 60 minutes in a separate head-to-head experiments (Assay #2 and #3) (see Note 6 for conditions) with Examples 1 and 3 and the comparator Compound #290 from U.S. Pat. No. 5,591,737, the amounts left after the 30 minute incubation (with […] microsome protein vs 0.1 mg/mL for Assay #3) were 67, 99 and 79% and for the 60 minute incubation were 94, 73 and 77%, respectively. Similarly, in a third repeat assay (Assay #4 with—NADPH controls) (see Note 6 for conditions), 90 and 72% were remaining for Example 1 and the comparator compound, respectively. […]
Note 6: Human Liver Microsome Assay # 1-3 conditions. • Assay experiment #1: Substrate concentration=1 μM; Protein concentration=0.1 mg/mL; incubation time=30 minutes at 37° C. • Assay experiment #2: Substrate concentration=1 μM; Protein concentration 0.1 mg/mL; incubation time=30 minutes at 37° C. • Assay experiment #3: Substrate concentration=1 μM; Protein concentration=0.1 mg/mL; incubation time=60 minutes at 37° C. • Assay experiment #4: Substrate concentration=1 μM; Protein concentration=1.0 mg/mL; incubation time=60 minutes at 37° C.

CYP-P450 2D6 = target: T3, CYP-P450 2D6 (Homo sapiens, UniProt P10635); assay: CYP-P450 reversible inhibition, 2D6; assay type: in vitro ADME; conditions: human liver microsomes or recombinant P450 microsomes; fluorescent probe
T3 construct: host or cells: human liver microsomes or recombinant P450 microsomes
T3 sequence (P10635 whole entry): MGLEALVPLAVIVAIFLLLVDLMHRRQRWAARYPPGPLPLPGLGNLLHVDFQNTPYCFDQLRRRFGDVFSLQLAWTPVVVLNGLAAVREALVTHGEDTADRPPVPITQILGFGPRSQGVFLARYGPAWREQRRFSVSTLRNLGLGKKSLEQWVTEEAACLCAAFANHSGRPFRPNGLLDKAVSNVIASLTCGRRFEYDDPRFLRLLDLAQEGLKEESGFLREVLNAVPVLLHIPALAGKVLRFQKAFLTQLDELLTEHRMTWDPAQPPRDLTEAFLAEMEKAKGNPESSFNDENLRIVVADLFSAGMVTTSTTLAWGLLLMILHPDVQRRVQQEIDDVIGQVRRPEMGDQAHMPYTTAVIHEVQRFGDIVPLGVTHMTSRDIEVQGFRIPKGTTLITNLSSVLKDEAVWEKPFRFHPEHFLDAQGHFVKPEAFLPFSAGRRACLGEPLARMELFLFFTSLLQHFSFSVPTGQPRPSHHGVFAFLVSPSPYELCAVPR
Experimental: as §1

Compound | F (Rat pharmacokinetics; Sprague-Dawley, in vivo) | Vd (Rat pharmacokinetics; Sprague-Dawley, in vivo) | clearance (Rat pharmacokinetics; Sprague-Dawley, in vivo) | AUCN, i.v. dosing @ 1 mpk (Rat pharmacokinetics; in vivo) | AUCN, p.o. dosing @ 2 mpk (Rat pharmacokinetics; in vivo) | IC50 (CYP-P450 2C9) | IC50 (CYP-P450 3A4) | % Left Assay 2 @ 0 min [1] | % Left Assay 2 @ 2.5 min [1] | % Left Assay 2 @ 5 min [1] | % Left Assay 2 @ 10 min [1] | % Left Assay 2 @ 15 min [1] | % Left Assay 2 @ 30 min [1] | % Left Assay 3 @ 0 min [1] | % Left Assay 3 @ 5 min [1] | % Left Assay 3 @ 10 min [1] | % Left Assay 3 @ 15 min [1] | % Left Assay 3 @ 30 min [1] | % Left Assay 3 @ 60 min [1] | IC50 (CYP-P450 2D6) | other results
CCC[C@@H](NC(=O)N1C(=O)C(CC)(CC)[C@@H]1Oc1ccc(C(=O)N(C)CCN(C)C)cc1)c1ccc(OC)cc1 [Compound #290, reference compound] | 29% | 14.5 L/kg | 114 mL/min/kg | 0.28 μMhrkg/mg | 0.081 μMhrkg/mg | 25 µM | 62 µM | 100% | 99% | 95% | 89% | 82% | 79% and 79 +/− 6% | 100% | 90% | 88% | 85% | 83% | 77% and 77 +/− 4% | 39 µM | half-life (Rat pharmacokinetics; Sprague-Dawley, in vivo): 2 h; % Left (+NADPH) @ 0 min [1]: 100%; % Left (+NADPH) @ 5 min [1]: 92%; % Left (+NADPH) @ 10 min [1]: 89%; % Left (+NADPH) @ 15 min [1]: 84%; % Left (+NADPH) @ 30 min [1]: 78%; % Left (+NADPH) @ 60 min [1]: 72% and 72 +/− 0%; % Left (−NADPH) @ 0 min [1]: 89 +/− 5%; % Left (−NADPH) @ 60 min [1]: 83 +/− 1%
CCC[C@@H](NC(=O)N1C(=O)C(CC)(CC)[C@@H]1Oc1ccc(C(=O)N(CC)CCN(C)C)cc1)c1ccc(OC(F)(F)F)cc1 [Example 1, 2-(S)-[4-(((2-(Dimethylamino)ethyl)ethylamino)carbonyl)phenoxy]-3,3-diethyl-N-[1-(R)-(4-(trifluoromethoxy)phenyl)butyl]-4-oxo-1-azetidinecarboxamide] | 25% | 11 L/kg | 42 mL/min/kg | 0.65 μMhrkg/mg | 0.16 μMhrkg/mg | 17 µM | 46 µM | 100% | 78% | 78% | 73% | 70% | 67% and 67 +/− 2% | 100% | 101% | 79% | 90% | 100% | 94% and 94 +/− 10% | 37 µM | half-life (Rat pharmacokinetics; Sprague-Dawley, in vivo): 3.1 h; % Left @ 30 min [1]: 78%; % Left (+NADPH) @ 0 min [1]: 100%; % Left (+NADPH) @ 5 min [1]: 104%; % Left (+NADPH) @ 10 min [1]: 99%; % Left (+NADPH) @ 15 min [1]: 96%; % Left (+NADPH) @ 30 min [1]: 91%; % Left (+NADPH) @ 60 min [1]: 90% and 90 +/− 4%; % Left (−NADPH) @ 0 min [1]: 87 +/− 21%; % Left (−NADPH) @ 60 min [1]: 99 +/− 2%; half-life at 1 μM [1]: 1.45 h
CCC[C@@H](NC(=O)N1C(=O)C(CC)(CC)[C@@H]1Oc1ccc(C(=O)N(CC)CCN(C)C)cc1)c1ccc(C(F)(F)F)cc1 [Example 3, 2-(S)-[4-(((2-(Dimethylamino)ethyl)ethylamino)carbonyl)phenoxy]-3,3-diethyl-N-[1-(R)-(4-(trifluoromethyl)phenyl)butyl]-4-oxo-1-azetidinecarboxamide] | 28% | – | 113 mL/min/kg | 0.24 μMhrkg/mg | 0.069 μMhrkg/mg | 8.1 µM | 39 µM | 100% | 107% | 85% | 82% | 82% | 99% and 79 +/− 7% | 100% | 86% | 81% | 75% | 75% | 73% and 73 +/− 0% | 41 µM | Vd (Rat pharmacokinetics; Sprague-Dawley, in vivo, i.v. 1 mpk, mono-L-malic acid salts, read-out: VDss): 29 L/kg; half-life (Rat pharmacokinetics; Sprague-Dawley, in vivo, i.v. 1 mpk, mono-L-malic acid salts, read-out: t1/2 (converted)): 3.7 h; F (Rat pharmacokinetics; oral bioavailability, p.o. 2 mpk vs i.v. 1 mpk): 28%; % Left @ 30 min [1]: 60%; half-life at 1 μM [1]: 0.533 h

— patent publication US20100216761A1, “NOVEL AZETIDINONES USEFUL AS INHIBITORS OF ELASTASE” (priority 2007, published 2010)
